Assay results published in US4727090A, “Process for preparing and therapeutical applications of the 2,4,6-triiodophenol” (Bislak, S.A., priority 1983, dated 1988).

Key:
vascular surface = assay: Vascular caliber by echo-Doppler in cardiovascular patients (vasodilatory action); type: in vivo; settings: 30 mg/day intramuscular
Description: (§1) The technology used to show the hemodynamic changes was of the non-invasivetype, as in this way experiments can be repeated and are completely innoxious for the patient. Of all the non-invasive methods of diagnosis we selected the most reliable of actual conditions, which is the method of ultrasounds (echo and Doppler's effects). The bidimensional echocardiography in real time, combined with pulsatile Doppler and the bidimensional vascular echography combined with pulsatile Doppler hemodynamic, are actually the two most reliable non-invasive techniques for the study of the anatomic changes and macroscopic hemodynamics with regard to the cardiovascular apparatus. That's why we used for the study of the clinical effects of the 2,4,6-triiodophenol an echo-Doppler trade mark ATL (Mark V), being the transmission frequency of 3 MHz, as well as a continuous Doppler trade mark SONICAID of 4 and 8 MHz.
(§2) Patients were divided in four statistically acceptable groups (50 in each group), comparing the results obtained with this medicament before, during and after the treatment.
(§3) Methodologically there are practiced echographical cuts in real time of the heart, big vases, supra-aortic trunks, abdominal aorta, portal and caval systems and iliac and femoral arteries, obtaining fluxmetric samples Doppler in all the mentioned cardiac cavities and blood vessels to study the sense of the flow, outflow (stream) or volume of flow and the hemodynamic features of the sanguineous flow.
(§4) Hereunder we expose the clinical results obtained after the administration during three months of the 2,4,6-triiodophenol in 200 cardiovascular patients.
(§5) Sick persons were divided in 4 groups; (1) 50 patients with cerebral vascular insufficiency, (2) 50 patients with coronary insufficiency, (3) 50 patients with hepatic insufficiency and (4) 50 patients with peripheral vascular insufficiency of the lower extremities. All these persons received an intramuscular administration, a dosage of 30 mg/day of 2,4,6-triiodophenol, carrying out controls at the first, second and third month of all angiohemodynamic parameters, supposing a total of 600 controls (150 per each group after the three months).

Carrageenin leg oedema = Carrageenin leg oedema test; type: in vivo, white rats; settings: for inhibition at 5 mg/kg: Rattus norvegicus, 5 mg/kg oral
Method: (A) The antiinflammatory action is shown in white rats, of a weight of about 200-225 g, having provoked in these animals the leg oedema by means of an injection in the sole of the foot of 0.1 ml of a 1% Carrageenin solution.
One control group of ten animals, another the same medicated with indomethacin via oral at 30 mg/kg, in suspension in a carboxymethylcellulose solution, another group of ten rats, medicated with triiodophenol in oral solution at 5 mg/kg, another group medicated with triioodophenol at 1 mg/kg, injected via intramuscular and another group medicated with triiodophenol at 0.5 mg/kg via intramuscular. All medications are administered simultaneously to the formation of Edema.
The volume of the same is measured at 0 hours, 3 hours, 4 hours, 5 hours and 6 hours with a mercury Plestimograph.

vascular wall = assay: Vascular wall distensibility by echo-Doppler in cardiovascular patients (antiatherosclerotic action); type: in vivo; settings: 30 mg/day intramuscular
Description: as §1, §2, §3, §4, §5

fat in the blood = assay: Fat in the blood in cardiovascular patients (hypocholesterinemic action); type: in vivo; settings: 3rd month, 30 mg/day intramuscular
Method: as §4, §5

[1] = Effects by parenteral administration compared with classical antirheumatics; type: in vivo; settings: 1 mg/kg
velocity of blood flow = assay: Speed of flow by echo-Doppler in cardiovascular patients (fluidifying + hemodynamizing action); type: in vivo; settings: 30 mg/day intramuscular
Description: as §1, §2, §3, §4, §5

[2] = tested on: sensation of pain on hot plate; assay: Hot plate test at 56° C; type: in vivo, mice
Method: (A) To control analgesic activity we use mice of about 25 g by weight, in groups of ten mice, subjected to the test of the hot plate at 56° C.
Animals receive a medicamentous injection of 0.1 ml of solubilized aspirin with sodium bicarbonate, or of solubilized triiodophenol at pH 9'5.
Controls receive physiologic serum.
The time in which the animals indicate sensation of pain is measured with a chronometer.
In the hereunder table the results testing animals, 15 min. and 30 min. after the medication. Average values are taken of each group.

Oc1c(I)cc(I)cc1I [2,4,6-triiodophenol]
Vascular caliber, abdominal aorta, variation (Δ %) (vascular surface; 1st month): +6%
Vascular caliber, caval iliac artery, variation (Δ %) (vascular surface; 1st month): +8%
Vascular caliber, portal carotid aorta, variation (Δ %) (vascular surface; 1st month): +11%
Vascular caliber, portal system, variation (Δ %) (vascular surface; 1st month): -13%
Vascular caliber, postcaval system, variation (Δ %) (vascular surface; 1st month): -9%
Vascular caliber, thoracic aorta, variation (Δ %) (vascular surface; 1st month): +3%
Vascular caliber, abdominal aorta, variation (Δ %) (vascular surface; 2nd month): +11%
Vascular caliber, caval iliac artery, variation (Δ %) (vascular surface; 2nd month): +12%
Vascular caliber, portal carotid aorta, variation (Δ %) (vascular surface; 2nd month): +12%
Vascular caliber, portal system, variation (Δ %) (vascular surface; 2nd month): -23%
Vascular caliber, postcaval system, variation (Δ %) (vascular surface; 2nd month): -14%
Vascular caliber, thoracic aorta, variation (Δ %) (vascular surface; 2nd month): +7%
Vascular caliber, abdominal aorta, variation (Δ %) (vascular surface; 3rd month): +13%
Vascular caliber, caval iliac artery, variation (Δ %) (vascular surface; 3rd month): +15%
Vascular caliber, portal carotid aorta, variation (Δ %) (vascular surface; 3rd month): +13%
Vascular caliber, portal system, variation (Δ %) (vascular surface; 3rd month): -26%
Vascular caliber, postcaval system, variation (Δ %) (vascular surface; 3rd month): -13%
Vascular caliber, thoracic aorta, variation (Δ %) (vascular surface; 3rd month): +9%
% inhibition (oedema) (Carrageenin leg oedema; 0,5 mg/kg inj. (intramuscular), 3 hours): 20%
% inhibition (oedema) (Carrageenin leg oedema; 0,5 mg/kg inj. (intramuscular), 4 hours): 42%
% inhibition (oedema) (Carrageenin leg oedema; 0,5 mg/kg inj. (intramuscular), 5 hours): 49%
% inhibition (oedema) (Carrageenin leg oedema; 0,5 mg/kg inj. (intramuscular), 6 hours): 60%
% inhibition (oedema) (Carrageenin leg oedema; 1 mg/kg inj. (intramuscular), 4 hours): 66%
% inhibition (oedema) (Carrageenin leg oedema; 1 mg/kg inj. (intramuscular), 5 hours): 75%
% inhibition (oedema) (Carrageenin leg oedema; 1 mg/kg inj. (intramuscular), 6 hours): 82%
inhibition at 5 mg/kg (Carrageenin leg oedema; 3 hours): 43%
inhibition at 5 mg/kg (Carrageenin leg oedema; 4 hours): 50%
inhibition at 5 mg/kg (Carrageenin leg oedema; 5 hours): 57%
inhibition at 5 mg/kg (Carrageenin leg oedema; 6 hours): 65%
Distensibility, abdominal aorta, variation (Δ %) (vascular wall; 2nd month): +29%
Distensibility, caval iliac artery, variation (Δ %) (vascular wall; 2nd month): +28%
Distensibility, portal carotid aorta, variation (Δ %) (vascular wall; 2nd month): +27%
Distensibility, portal vein, variation (Δ %) (vascular wall; 2nd month): +29,5%
Distensibility, post caval system, variation (Δ %) (vascular wall; 2nd month): +12%
Distensibility, thoracic aorta, variation (Δ %) (vascular wall; 2nd month): +11%
Distensibility, abdominal aorta, variation (Δ %) (vascular wall; 3rd month): +31%
Distensibility, average value (arteries), variation (Δ %) (vascular wall; 3rd month): +26%
Distensibility, average value (veins), variation (Δ %) (vascular wall; 3rd month): +24%
Distensibility, caval iliac artery, variation (Δ %) (vascular wall; 3rd month): +29,5%
Distensibility, portal carotid aorta, variation (Δ %) (vascular wall; 3rd month): +30%
Distensibility, portal vein, variation (Δ %) (vascular wall; 3rd month): +32%
Distensibility, post caval system, variation (Δ %) (vascular wall; 3rd month): +15%
Distensibility, thoracic aorta, variation (Δ %) (vascular wall; 3rd month): +14%
Improvement of the parietal dynamic of all arteries (vascular wall; conclusions, three months): 26%
Improvement of the parietal dynamic of veins (vascular wall; conclusions, three months): 24%
Distensibility, abdominal aorta, variation (Δ %) (vascular wall; first month): +18%
Distensibility, caval iliac artery, variation (Δ %) (vascular wall; first month): +12%
Distensibility, portal carotid aorta, variation (Δ %) (vascular wall; first month): +17%
Distensibility, portal vein, variation (Δ %) (vascular wall; first month): +15%
Distensibility, post caval system, variation (Δ %) (vascular wall; first month): +7%
Distensibility, thoracic aorta, variation (Δ %) (vascular wall; first month): +7%
Cholesterol, variation (fat in the blood): -15%
Triglycerides, variation (fat in the blood): -12%
Effects compared with aspirin and indomethacin at therapeutic dosages [1]: comparable and even higher
Speed of flow, abdominal aorta, variation (Δ %) (velocity of blood flow; 1st month): +3%
Speed of flow, caval iliac artery, variation (Δ %) (velocity of blood flow; 1st month): +7%
Speed of flow, portal carotid aorta, variation (Δ %) (velocity of blood flow; 1st month): +11%
Speed of flow, portal system, variation (Δ %) (velocity of blood flow; 1st month): +16%
Speed of flow, postcaval system, variation (Δ %) (velocity of blood flow; 1st month): +8%
Speed of flow, thoracic aorta, variation (Δ %) (velocity of blood flow; 1st month): +2%
Speed of flow, abdominal aorta, variation (Δ %) (velocity of blood flow; 2nd month): +5%
Speed of flow, caval iliac artery, variation (Δ %) (velocity of blood flow; 2nd month): +11%
Speed of flow, portal carotid aorta, variation (Δ %) (velocity of blood flow; 2nd month): +14%
Speed of flow, portal system, variation (Δ %) (velocity of blood flow; 2nd month): +21%
Speed of flow, postcaval system, variation (Δ %) (velocity of blood flow; 2nd month): +12%
Speed of flow, thoracic aorta, variation (Δ %) (velocity of blood flow; 2nd month): +3%
Speed of flow, abdominal aorta, variation (Δ %) (velocity of blood flow; 3rd month): +7%
Speed of flow, average value (arteries), variation (Δ %) (velocity of blood flow; 3rd month): +11%
Speed of flow, average value (veins), variation (Δ %) (velocity of blood flow; 3rd month): +17%
Speed of flow, caval iliac artery, variation (Δ %) (velocity of blood flow; 3rd month): +14%
Speed of flow, portal carotid aorta, variation (Δ %) (velocity of blood flow; 3rd month): +19%
Speed of flow, portal system, variation (Δ %) (velocity of blood flow; 3rd month): +29%
Speed of flow, postcaval system, variation (Δ %) (velocity of blood flow; 3rd month): +15%
Speed of flow, thoracic aorta, variation (Δ %) (velocity of blood flow; 3rd month): +5%
Increase of speed of the sanguineous flow in the arteries (velocity of blood flow; conclusions, three months): 11%
Increase of speed of the sanguineous flow in the veins (velocity of blood flow; conclusions, three months): 17%
Time to sensation of pain ([2]; 1 mg/kg injection, 15 minutes): 6,5 sec.
Time to sensation of pain ([2]; 1 mg/kg injection, 30 minutes): 6,7 sec.
Time to sensation of pain ([2]; 10 mg/kg injection, 15 minutes): 11,7 sec.
Time to sensation of pain ([2]; 10 mg/kg injection, 30 minutes): 11,8 sec.
